# “Also recorded” adds a separate entry of the source.
# T1: IL4 receptor in human monocytes (Homo sapiens, UniProt P24394)
# T1 construct: Human monocytes were isolated from a healthy donor's peripheral blood as described above; endogenous in cells; host or cells: primary human monocytes from a healthy donor's peripheral blood
# T1 sequence (P24394 26-825): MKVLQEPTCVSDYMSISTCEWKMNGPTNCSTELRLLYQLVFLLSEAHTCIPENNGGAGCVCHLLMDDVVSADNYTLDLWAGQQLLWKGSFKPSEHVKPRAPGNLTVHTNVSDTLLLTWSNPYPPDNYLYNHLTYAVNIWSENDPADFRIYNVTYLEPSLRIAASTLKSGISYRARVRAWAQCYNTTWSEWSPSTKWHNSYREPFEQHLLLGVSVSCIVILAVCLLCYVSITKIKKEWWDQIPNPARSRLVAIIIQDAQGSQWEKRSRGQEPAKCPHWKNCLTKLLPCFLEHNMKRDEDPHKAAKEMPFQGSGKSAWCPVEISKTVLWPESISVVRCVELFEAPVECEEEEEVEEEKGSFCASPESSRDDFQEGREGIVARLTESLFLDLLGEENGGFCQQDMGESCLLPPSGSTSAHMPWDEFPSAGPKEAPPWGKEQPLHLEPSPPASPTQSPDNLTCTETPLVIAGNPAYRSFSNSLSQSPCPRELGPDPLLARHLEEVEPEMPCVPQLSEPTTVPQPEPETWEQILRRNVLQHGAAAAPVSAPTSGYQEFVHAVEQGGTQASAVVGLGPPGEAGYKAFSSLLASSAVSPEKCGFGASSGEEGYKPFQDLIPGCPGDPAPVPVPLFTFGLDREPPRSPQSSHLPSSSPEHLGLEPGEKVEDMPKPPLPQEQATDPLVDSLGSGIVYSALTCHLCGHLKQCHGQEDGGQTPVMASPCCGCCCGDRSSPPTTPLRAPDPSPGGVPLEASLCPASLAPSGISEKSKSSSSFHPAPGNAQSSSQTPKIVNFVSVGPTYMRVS
# B1: VHHCD8-apoA1 fusion protein (VHH)
# VHH: QVQLQESGGGLVQAGGSLRLSCAASGFTFDDYAIGWFRQAPGKEREGVSCINNSDGSGYVADSVKGRFTISSDNAKNTVYLQMNSLKPEDTAVYYCAAAGDGGCYYGLDYWGKGTQVTVSS
# modifications: labelled with sulfo-cyanine5-maleimide (the linker between apoA1 and VHHCD8 comprises a cysteine)
# notes: Fusion of an anti-CD8 VHH with apoA1, expressed in ClearColi; molecular weight 43.3 kDa
# Legend:
# [1] = system: primary human monocytes; assay: In vitro model of trained immunity in primary human monocytes; type: cell-based; conditions: 1 hour pre-incubation with inhibitor (Table 2) before IL4 training
# Description: In vitro model of trained immunity in primary human monocytes: To induce trained immunity in primary human monocytes, a previously optimized and published method was used (Dominguez-Andres, J. et al. In vitro induction of trained immunity in adherent human monocytes. STAR Protoc 2, 100365, doi:10.1016/j.xpro.2021.100365 (2021); van Lier, D., Geven, C., Leijte, G. P. & Pickkers, P. Experimental human endotoxemia as a model of systemic inflammation. Biochimie 159, 99-106, doi:10.1016/j.biochi.2018.06.014 (2019)). Briefly: monocytes were adhered to a flat-bottom cell culture plate for 1 hour and washed with warm PBS to remove any non-adherent cells and cell debris. Then, they were stimulated (“trained”) for 24 hours with one of the stimuli detailed in Table 1, or medium only (“untrained” control).
# (§1) For pharmacological inhibition experiments, the monocytes were pre-incubated for 1 hour with one of the inhibitors described in Table 2 before addition of the training stimulus.
# Following the initial 24-hour stimulation, the cells were washed with warm PBS and warm cell culture medium was added. The monocytes were then allowed to rest and differentiate into macrophages for 5 days. On day 6, the induction of trained immunity was assessed. To this end, the cells were typically re-stimulated with LPS for an additional 24 hours to elicit cytokine production. The supernatants were collected and stored at −20° C. until further analysis, e.g. with ELISA for IL6 and TNF.
# (§2) Cytokine and lactate measurements: TNF, IL6, and IL1Ra were measured in cell culture supernatants using duoset ELISA kits (R&D systems), according to the manufacturer's instructions. For lactate measurements, a fluorometric assay was used. 30 μl sample, medium control, or known standard was added to a black 96-well plate. Then, 30 μl reaction mix (PBS pH 7.4, horse radish peroxidase (0.2 U/ml), lactate oxidase (2 U/ml), Amplex red (100 μM; Fisher scientific)) was added and the reaction was incubated for 20 minutes in the dark at RT. Immediately thereafter, fluorescence was measured at 530/25 nm and 590/35 nm. Gen5 software (v3.03, BioTek) was used in conjunction with Microsoft Excel to calculate cytokine and lactate concentrations in the original samples.
# [2] = system: primary human monocytes; assay: In vitro inflammation inhibition, LPS-stimulated monocytes; type: cell-based; conditions: 1 hour pre-incubation with inhibitor (Table 2), IL4 + LPS 24 h
# Method: as §1
# In vitro inflammation inhibition: Monocytes were adhered to a flat-bottom cell culture plate for 1 hour and washed with warm PBS to remove any non-adherent cells and cell debris. […] Following the initial 24-hour stimulation, the supernatants were collected and stored at −20° C. until further analysis with ELISA for IL6 and TNF.
# as §2
# [3] = system: HEK-Blue™ IL4/IL13 cells; assay: Human embryonic kidney 293 IL4 reporter cell assay (Example 2); type: cell-based; conditions: IL4Rα/STAT6-inducible reporter
# Method: This cell line has a fully active STAT6 pathway and carries a STAT6-inducible SEAP reporter gene. […] The levels of secreted SEAP can be determined with QUANTI-Blue™ (Invivogen). 180 μL DMEM with 10% FBS and 1% Pen-Strep containing […] was added per well in a 96-well-plate. Subsequently, 20 μL stimulus or vehicle was added and cells were incubated for 20-24 hours at 37° C. Subsequently, 180 μL QUANTI-Blue was added per well to a separate 96-well-plate (flat-bottom) and 20 μL of the cell supernatant was added. The plate was incubated for 1-3 hours at 37° C. and absorbance at 640 nm was measured on a Tecan Spark plate reader to determine SEAP levels.
# [4] = target: T1, IL4 receptor in human monocytes; assay: Super-resolution fluorescence microscopy (dSTORM) of interactions with IL4 receptor; type: cell-based
# Method: 100,000 monocytes were seeded per well on a cell culture-treated chambered coverslip (μ-Slide 8-well, IBID). After 2 hours of incubation at 37° C. […] Subsequently, the cells were washed with PBS and fixed with 4% PFA for 20 minutes. […] The stained cells were stored in PBS at 4° C. For the direct stochastic optical reconstruction microscopy (dSTORM), the cells were immersed in GLOXY imaging buffer (40 μg/ml catalase, 0.5 mg/ml glucose oxidase, 5% glucose and 0.01 M cysteamine in PBS, pH 8.0) for a few minutes before and during the imaging. The acquisition was performed in Total Internal Reflection Fluorescence (TIRF) mode, using ONI Nanoimager (ONI, Oxford, UK). It is equipped with a 100×/1.4NA oil immersion objective, a sCMOS camera, and, in this study, 488 nm (200 mW) and 640 nm (1000 mW) lasers were used. 10000 frames were acquired with a 10 ms exposure time with the field of view of 50×80 μm. Raw data were processed using the ThunderSTORM software, yielding images with a spatial resolution of 10 nm.
# [5] = target: T2, CD8 receptor (Mus musculus, UniProt P01731+P10300); assay: In vitro binding of VHHCD8-apoA1 in mice splenocytes; type: cell-based; conditions: 30 minutes at 4° C.
# T2 construct: Spleens were obtained from mice, cut into pieces, and strained through a 70 μm strainer; from tissue; host or cells: mouse spleen (freshly isolated splenocytes)
# T2 sequence (P01731 28-247): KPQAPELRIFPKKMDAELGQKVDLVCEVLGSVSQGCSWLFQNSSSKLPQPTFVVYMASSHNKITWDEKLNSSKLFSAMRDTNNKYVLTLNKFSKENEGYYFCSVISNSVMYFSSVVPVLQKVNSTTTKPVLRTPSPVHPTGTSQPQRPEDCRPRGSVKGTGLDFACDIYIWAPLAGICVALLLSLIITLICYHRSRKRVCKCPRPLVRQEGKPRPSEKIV
# T2 sequence (P10300 22-213): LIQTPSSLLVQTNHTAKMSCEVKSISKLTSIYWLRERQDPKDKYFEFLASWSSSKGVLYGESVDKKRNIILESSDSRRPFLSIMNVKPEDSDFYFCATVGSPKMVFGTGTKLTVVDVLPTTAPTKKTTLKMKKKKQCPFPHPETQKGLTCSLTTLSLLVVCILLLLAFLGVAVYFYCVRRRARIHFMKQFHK
# Method: In vitro binding of VHHCD8-apoA1 in mice splenocytes: Spleens were obtained from mice, cut into pieces, and strained through a 70 μm strainer (Corning) multiple times to obtain a splenocyte suspension. Cells were spun down at 1500 rpm for 10 minutes, the supernatant was removed and the cells were dissolved in 2 mL 1× red blood cell lysis buffer (Thermofisher). Suspension was incubated at room temperature for 5 minutes, 10 mL Roswell Park Memorial Institute (RPMI) medium (Thermofisher) was added, and cells were again spun down at 1500 rpm for 10 minutes. Cells were then redissolved in RPMI medium and plated in a 96 wells plate at 150.000 cells/well.
# The proteins were labeled by adding sulfo-cyanine5-maleimide (Lumiprobe) in dimethyl sulfoxide (DMSO) at a 5× molar excess. This mixture was incubated at room temperature for 2 hours. Excess dye was removed using a PD minitrap G-25 desalting column (Cytiva). Fluorescently labeled aNPs were formulated by adding 6.4 μg Dil for discoidal formulations and 21 μg Dil for spherical formulations (see section “formulating nanoparticles” of Example 2). […] (for aNPs) after which cells were harvested, washed, and stained for CD3 and CD4 and measured on Cytoflex (Beckman Coulter Inc.). Flow cytometry data was analyzed using FlowJo software (BD).
# [6] = target: T3, CD8 receptor on mouse splenocytes (mouse, UniProt P01731 28-247; P10300 22-213); assay: flow cytometry, fluorescently labelled protein on mouse splenocytes; upper panel 'MFI APC (CD8+) of CD3+ T cells'
# T3 construct: whole, on cells
# T3 sequence (P01731 28-247, chain 1 of 2): as the sequence (P01731 28-247) above
# T3 sequence (P10300 22-213, chain 2 of 2): as the sequence (P10300 22-213) above
# Method: The proteins were labeled by adding sulfo-cyanine5-maleimide (Lumiprobe) in dimethyl sulfoxide (DMSO) at a 5× molar excess. This mixture was incubated at room temperature for 2 hours. Excess dye was removed using a PD minitrap G-25 desalting column (Cytiva). […] Fluorescently labeled fusion proteins or aNPs and controls were added to the wells and incubated for 30 minutes at 4° C. (for proteins) or 37° C. (for aNPs) after which cells were harvested, washed, and stained for CD3 and CD4 and measured on Cytoflex (Beckman Coulter Inc.). Flow cytometry data was analyzed using FlowJo software (BD).
molecule,measurement,setting,value
"CCC(=O)N1CCN(c2ccc(-n3c(=O)ccc4cnc5ccc(-c6cnc7ccccc7c6)cc5c43)cc2C(F)(F)F)CC1 [torin-1, Torin-1, reference compound]","effect of inhibitor on trained immunity induction by IL4 (TNF, IL6)",[1],diminished the trained immunity responses; also recorded: significantly blunted
same,"effect of inhibitor on IL4's inhibition of acute inflammation (TNF, IL6)",[2],did not abrogate the effect of IL4 on acute inflammation
"apoA1-IL4: fusion protein of human apoA1 and human IL4 via flexible linker, 6his-tag and strep-tag (e.g. SEQ ID NO. 35)",SEAP production by HEK-IL4 reporter cells,[3],prominently produced
"NC(=O)c1cnc(NCCc2ccc(O)c(Cl)c2)nc1NCc1ccccc1 [AS1517499, reference compound]","effect of inhibitor on trained immunity induction by IL4 (TNF, IL6)",[1],did not affect trained immunity induction by IL4
same,"effect of inhibitor on IL4's inhibition of acute inflammation (TNF, IL6)",[2],partly restored cytokine production in acute inflammatory responses
apoA1,binding to primary human monocytes (rim covering the cell surface),"[4]; Cy5-labeled, 2 h at 37° C.",confirmed
same,association with IL4Rα on the cell surface (co-clusters),[4]; zoomed in section of the membrane,did not observe
same,Mean Fluorescence Intensity (MFI) of fluorescently labeled protein,[5],did not show this dose dependent behavior
B1,EC50 (read off the curve),[6],~5 nM

# From patent US20240391978A1, “APOLIPOPROTEIN FUSION PROTEINS FOR CELL-SPECIFIC IMMUNE REGULATION” (BIO-TRIP B.V., priority 2021, published 2024)
